A short description of data set [1]: Molar enthalpy of transition or fusion. The note with it: Crystal; DSC.
The conditions of data set [2]: Crystal.

The structures appear in SMILES notation. ± gives the expanded uncertainty stated by the source.

Experimental findings from the NIST ThermoML archive (doi:10.1016/j.tca.2015.12.010) are described below.

Regarding `OC[C@@H](O)[C@@H](O)[C@H](O)[C@H](O)CO` [D-mannitol], the “Molar enthalpy of transition or fusion” value in data set [1] is 13.8 ± 0.359 kcal/mol. Besides, the Normal melting temperature amounted to 167.10 ± 2.1 °C in data set [2] (DTA) and 166.00 ± 10 °C in data set [2] (Infrared thermography).
Consider `OC[C@@H](O)[C@@H](O)[C@@H](O)CO` [SRS-1,2,3,4,5-pentanepentol], for which the “Molar enthalpy of transition or fusion” value in data set [1] worked out at 8.44 ± 0.217 kcal/mol. Besides, the Normal melting temperature in data set [2] (DTA) turned out to be 100.00 ± 1.1 °C; in data set [2] (Infrared thermography), 101.60 ± 10 °C.
Take `OC[C@@H](O)[C@H](O)[C@H](O)[C@@H](O)CO` [dulcitol]: the “Molar enthalpy of transition or fusion” value in data set [1] came to 15.5 ± 0.382 kcal/mol. The figures for the Normal melting temperature in data set [2] (DTA) and in data set [2] (Infrared thermography) were 187.30 ± 0.5 °C and 189.50 ± 10 °C, respectively.
Take `OC[C@@H](O)[C@@H](O)CO` [meso-1,2,3,4-butanetetrol]: in data set [1], the “Molar enthalpy of transition or fusion” value was determined as 9.92 ± 0.263 kcal/mol. In addition, the Normal melting temperature in data set [2] (DTA) amounted to 118.90 ± 1.1 °C; in data set [2] (Infrared thermography), 121.20 ± 10 °C.
Consider `OC[C@@H](O)[C@H](O)[C@@H](O)CO` [xylitol], for which, in data set [1], the “Molar enthalpy of transition or fusion” value worked out at 9.13 ± 0.263 kcal/mol. The Normal melting temperature in data set [2] (DTA) was determined as 95.10 ± 1.1 °C; in data set [2] (Infrared thermography), 99.00 ± 10 °C.
